Laboratory results: ChEMBL document CHEMBL3352542, “Synthesis, biological evaluation and molecular modeling study of 2-(1,3,4-thiadiazolyl-thio and 4-methyl-thiazolyl-thio)-quinazolin-4-ones as a new class of DHFR inhibitors” (Bioorg Med Chem Lett, 2014)
Activity calls are given as the source filed them. The rule behind the calls is not given here.

Columns and labels:
UACC-62 = assay: Growth inhibition of human UACC62 cells at 10 uM after 48 hrs; type: functional
NCI-H23 = assay: Growth inhibition of human NCI-H23 cells at 10 uM after 48 hrs; type: functional
HT-29 = assay: Growth inhibition of human HT-29 cells at 10 uM after 48 hrs; type: functional
LOX IMVI = assay: Growth inhibition of human LOXIMVI cells at 10 uM after 48 hrs; type: functional
HL-60(TB) = assay: Growth inhibition of human HL-60(TB) cells at 10 uM after 48 hrs; type: functional
786-0 = assay: Growth inhibition of human 786-0 cells at 10 uM after 48 hrs; type: functional
RPMI-8226 = assay: Growth inhibition of human RPMI8226 cells at 10 uM after 48 hrs; type: functional
Hs-578T = assay: Growth inhibition of human Hs 578T cells at 10 uM after 48 hrs; type: functional
BT-549 = assay: Growth inhibition of human BT549 cells at 10 uM after 48 hrs; type: functional
SF-539 = assay: Growth inhibition of human SF539 cells at 10 uM after 48 hrs; type: functional
SR = assay: Growth inhibition of human SR cells at 10 uM after 48 hrs; type: functional
A549 = assay: Growth inhibition of human A549 cells at 10 uM after 48 hrs; type: functional
Dihydrofolate reductase = target: T1, Dihydrofolate reductase (Bos taurus, UniProt P00376); assay: Inhibition of bovine liver DHFR
T1 sequence (P00376 whole entry): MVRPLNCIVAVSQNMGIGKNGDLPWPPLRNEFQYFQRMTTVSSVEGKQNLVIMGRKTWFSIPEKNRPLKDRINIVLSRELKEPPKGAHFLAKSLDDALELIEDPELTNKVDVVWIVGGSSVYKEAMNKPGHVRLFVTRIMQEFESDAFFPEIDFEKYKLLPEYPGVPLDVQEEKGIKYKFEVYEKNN

MDA-MB-435 = assay: Growth inhibition of human MDA-MB-435 cells at 10 uM after 48 hrs; type: functional
RXF 393 = assay: Growth inhibition of human RXF393 cells at 10 uM after 48 hrs; type: functional
OVCAR-8 = assay: Growth inhibition of human OVCAR8 cells at 10 uM after 48 hrs; type: functional
NCI-H522 = assay: Growth inhibition of human NCI-H522 cells at 10 uM after 48 hrs; type: functional
NCI-H460 = assay: Growth inhibition of human NCI-H460 cells at 10 uM after 48 hrs; type: functional
OVCAR-3 = assay: Growth inhibition of human OVCAR3 cells at 10 uM after 48 hrs; type: functional
MDA-MB-231 = assay: Growth inhibition of human MDA-MB-231 cells at 10 uM after 48 hrs; type: functional
U-251 = assay: Growth inhibition of human U251 cells at 10 uM after 48 hrs; type: functional
NCI/ADR-RES = assay: Growth inhibition of human NCI-ADR-RES cells at 10 uM after 48 hrs; type: functional
Staphylococcus aureus = assay: Antimicrobial activity against Staphylococcus aureus assessed as inhibition zone at 200 ug/disk after 24 hrs by disc-diffusion method; type: functional; settings: read-out: IZ
NCI-H226 = assay: Growth inhibition of human NCI-H226 cells at 10 uM after 48 hrs; type: functional
A498 = assay: Growth inhibition of human A498 cells at 10 uM after 48 hrs; type: functional
T47D = assay: Growth inhibition of human T47D cells at 10 uM after 48 hrs; type: functional
SW-620 = assay: Growth inhibition of human SW620 cells at 10 uM after 48 hrs; type: functional
PC-3 = assay: Growth inhibition of human PC3 cells at 10 uM after 48 hrs; type: functional
KM12 = assay: Growth inhibition of human KM12 cells at 10 uM after 48 hrs; type: functional
OVCAR-5 = assay: Growth inhibition of human OVCAR5 cells at 10 uM after 48 hrs; type: functional
SF-295 = assay: Growth inhibition of human SF295 cells at 10 uM after 48 hrs; type: functional
Malme-3M = assay: Growth inhibition of human MALME-3M cells at 10 uM after 48 hrs; type: functional
MOLT-4 = assay: Growth inhibition of human MOLT4 cells at 10 uM after 48 hrs; type: functional
M14 = assay: Growth inhibition of human M14 cells at 10 uM after 48 hrs; type: functional
SF-268 = assay: Growth inhibition of human SF268 cells at 10 uM after 48 hrs; type: functional
OVCAR-4 = assay: Growth inhibition of human OVCAR4 cells at 10 uM after 48 hrs; type: functional
HOP-92 = assay: Growth inhibition of human HOP92 cells at 10 uM after 48 hrs; type: functional
HCT-15 = assay: Growth inhibition of human HCT15 cells at 10 uM after 48 hrs; type: functional
Escherichia coli = assay: Antimicrobial activity against Escherichia coli assessed as inhibition zone at 200 ug/disk after 24 hrs by disc-diffusion method; type: functional; settings: read-out: IZ
Bacillus subtilis = assay: Antimicrobial activity against Bacillus subtilis assessed as inhibition zone at 200 ug/disk after 24 hrs by disc-diffusion method; type: functional; settings: read-out: IZ
CCRF-CEM = assay: Growth inhibition of human CCRF-CEM cells at 10 uM after 48 hrs; type: functional
SNB-75 = assay: Growth inhibition of human SNB75 cells at 10 uM after 48 hrs; type: functional
K562 = assay: Growth inhibition of human K562 cells at 10 uM after 48 hrs; type: functional
SNB-19 = assay: Growth inhibition of human SNB19 cells at 10 uM after 48 hrs; type: functional
Candida albicans = assay: Antimicrobial activity against Candida albicans assessed as inhibition zone at 200 ug/disk after 24 hrs by disc-diffusion method; type: functional; settings: read-out: IZ
UO-31 = assay: Growth inhibition of human UO31 cells at 10 uM after 48 hrs; type: functional
ACHN = assay: Growth inhibition of human ACHN cells at 10 uM after 48 hrs; type: functional
SN12C = assay: Growth inhibition of human SN12C cells at 10 uM after 48 hrs; type: functional
HCT-116 = assay: Growth inhibition of human HCT116 cells at 10 uM after 48 hrs; type: functional
CAKI-1 = assay: Growth inhibition of human CAKI-1 cells at 10 uM after 48 hrs; type: functional
UACC-257 = assay: Growth inhibition of human UACC257 cells at 10 uM after 48 hrs; type: functional
Pseudomonas aeruginosa = assay: Antimicrobial activity against Pseudomonas aeruginosa assessed as inhibition zone at 200 ug/disk after 24 hrs by disc-diffusion method; type: functional; settings: read-out: IZ
MCF7 = assay: Growth inhibition of human MCF7 cells at 10 uM after 48 hrs; type: functional
SK-MEL-5 = assay: Growth inhibition of human SK-MEL-5 cells at 10 uM after 48 hrs; type: functional
COLO 205 = assay: Growth inhibition of human COLO205 cells at 10 uM after 48 hrs; type: functional
MDA-MB-468 = assay: Growth inhibition of human MDA-MB-468 cells at 10 uM after 48 hrs; type: functional
HCC 2998 = assay: Growth inhibition of human HCC2998 cells at 10 uM after 48 hrs; type: functional
TK-10 = assay: Growth inhibition of human TK10 cells at 10 uM after 48 hrs; type: functional

SMILES: Cc1ccc2nc(Sc3sc(N)nc3C)n(-c3ccccc3)c(=O)c2c1
- growth inhibition (GI) (UACC-62): inactive
- growth inhibition (GI) (NCI-H23): inactive
- growth inhibition (GI) (HT-29): inactive
- growth inhibition (GI) (LOX IMVI): inactive
- growth inhibition (GI) (HL-60(TB)): inactive
- growth inhibition (GI) (786-0): inactive
- growth inhibition (GI) (RPMI-8226): inactive
- growth inhibition (GI) (Hs-578T): inactive
- growth inhibition (GI) (BT-549): inactive
- growth inhibition (GI) (SF-539): inactive
- growth inhibition (GI) (SR): inactive
- growth inhibition (GI) (A549): inactive
- IC50 (Dihydrofolate reductase): 5000 nM
- growth inhibition (GI) (MDA-MB-435): inactive
- growth inhibition (GI) (RXF 393): inactive
- growth inhibition (GI) (OVCAR-8): inactive
- growth inhibition (GI) (NCI-H522): inactive
- growth inhibition (GI) (NCI-H460): inactive
- growth inhibition (GI) (OVCAR-3): inactive
- growth inhibition (GI) (MDA-MB-231): inactive
- growth inhibition (GI) (U-251): inactive
- growth inhibition (GI) (NCI/ADR-RES): inactive
- zone of inhibition at 200 µg/disc (Staphylococcus aureus): 8 mm
- growth inhibition (GI) (NCI-H226): inactive
- growth inhibition (GI) (A498): inactive
- growth inhibition (GI) (T47D): inactive
- growth inhibition (GI) (SW-620): inactive
- growth inhibition (GI) (PC-3): inactive
- growth inhibition (GI) (KM12): inactive
- growth inhibition (GI) (OVCAR-5): inactive
- growth inhibition (GI) (SF-295): inactive
- growth inhibition (GI) (Malme-3M): inactive
- growth inhibition (GI) (MOLT-4): inactive
- growth inhibition (GI) (M14): inactive
- growth inhibition (GI) (SF-268): inactive
- growth inhibition (GI) (OVCAR-4): inactive
- growth inhibition (GI) (HOP-92): inactive
- growth inhibition (GI) (HCT-15): inactive
- zone of inhibition at 200 µg/disc (Escherichia coli): 8 mm
- zone of inhibition at 200 µg/disc (Bacillus subtilis): 8 mm
- growth inhibition (GI) (CCRF-CEM): inactive
- growth inhibition (GI) (SNB-75): inactive
- growth inhibition (GI) (K562): inactive
- growth inhibition (GI) (SNB-19): inactive
- zone of inhibition at 200 µg/disc (Candida albicans): 8 mm
- growth inhibition (GI) (UO-31): inactive
- growth inhibition (GI) (ACHN): inactive
- growth inhibition (GI) (SN12C): inactive
- growth inhibition (GI) (HCT-116): inactive
- growth inhibition (GI) (CAKI-1): inactive
- growth inhibition (GI) (UACC-257): inactive
- zone of inhibition at 200 µg/disc (Pseudomonas aeruginosa): 8 mm
- growth inhibition (GI) (MCF7): inactive
- growth inhibition (GI) (SK-MEL-5): inactive
- growth inhibition (GI) (COLO 205): inactive
- growth inhibition (GI) (MDA-MB-468): inactive
- growth inhibition (GI) (HCC 2998): inactive
- growth inhibition (GI) (TK-10): inactive

SMILES: COc1ccc(-n2c(Sc3sc(N)nc3C)nc3cc(OC)c(OC)cc3c2=O)cc1
- growth inhibition (GI) (UACC-62): inactive
- growth inhibition (GI) (NCI-H23): inactive
- growth inhibition (GI) (HT-29): inactive
- growth inhibition (GI) (LOX IMVI): inactive
- growth inhibition (GI) (HL-60(TB)): inactive
- growth inhibition (GI) (786-0): inactive
- growth inhibition (GI) (RPMI-8226): inactive
- growth inhibition (GI) (Hs-578T): inactive
- growth inhibition (GI) (BT-549): inactive
- growth inhibition (GI) (SF-539): inactive
- growth inhibition (GI) (SR): inactive
- growth inhibition (GI) (A549): inactive
- IC50 (Dihydrofolate reductase): 1000 nM
- growth inhibition (GI) (MDA-MB-435): inactive
- growth inhibition (GI) (RXF 393): inactive
- growth inhibition (GI) (OVCAR-8): inactive
- growth inhibition (GI) (NCI-H522): inactive
- growth inhibition (GI) (NCI-H460): inactive
- growth inhibition (GI) (OVCAR-3): inactive
- growth inhibition (GI) (MDA-MB-231): inactive
- growth inhibition (GI) (U-251): inactive
- growth inhibition (GI) (NCI/ADR-RES): inactive
- zone of inhibition at 200 µg/disc (Staphylococcus aureus): 8 mm
- growth inhibition (GI) (NCI-H226): inactive
- growth inhibition (GI) (A498): inactive
- growth inhibition (GI) (T47D): inactive
- growth inhibition (GI) (SW-620): inactive
- growth inhibition (GI) (PC-3): inactive
- growth inhibition (GI) (KM12): inactive
- growth inhibition (GI) (OVCAR-5): inactive
- growth inhibition (GI) (SF-295): inactive
- growth inhibition (GI) (Malme-3M): inactive
- growth inhibition (GI) (MOLT-4): inactive
- growth inhibition (GI) (M14): inactive
- growth inhibition (GI) (SF-268): inactive
- growth inhibition (GI) (OVCAR-4): inactive
- growth inhibition (GI) (HOP-92): inactive
- growth inhibition (GI) (HCT-15): inactive
- zone of inhibition at 200 µg/disc (Escherichia coli): 8 mm
- zone of inhibition at 200 µg/disc (Bacillus subtilis): 8 mm
- growth inhibition (GI) (CCRF-CEM): inactive
- growth inhibition (GI) (SNB-75): inactive
- growth inhibition (GI) (K562): inactive
- growth inhibition (GI) (SNB-19): inactive
- zone of inhibition at 200 µg/disc (Candida albicans): 8 mm
- growth inhibition (GI) (UO-31): inactive
- growth inhibition (GI) (ACHN): inactive
- growth inhibition (GI) (SN12C): inactive
- growth inhibition (GI) (HCT-116): inactive
- growth inhibition (GI) (CAKI-1): inactive
- growth inhibition (GI) (UACC-257): inactive
- zone of inhibition at 200 µg/disc (Pseudomonas aeruginosa): 8 mm
- growth inhibition (GI) (MCF7): inactive
- growth inhibition (GI) (SK-MEL-5): inactive
- growth inhibition (GI) (COLO 205): inactive
- growth inhibition (GI) (MDA-MB-468): inactive
- growth inhibition (GI) (HCC 2998): inactive
- growth inhibition (GI) (TK-10): inactive
